Results from patent US11739098B2 (BRISTOL-MYERS SQUIBB COMPANY, priority 2017, dated 2023).

How the values were obtained:
Type in all cases: cell-based
human TLR7 = molecular target: T1, human TLR7 (Homo sapiens, UniProt Q9NYK1); assay: TLR7 inhibition reporter assay (HEK-Blue cells, SEAP reporter, gardiquimod stimulation); conditions: HEK-Blue cells overexpressing human TLR7, SEAP reporter, gardiquimod 7.5 μM
T1 construct: host or cells: HEK-Blue cells (HEK293-derived reporter line)
T1 sequence (Q9NYK1 27-1049): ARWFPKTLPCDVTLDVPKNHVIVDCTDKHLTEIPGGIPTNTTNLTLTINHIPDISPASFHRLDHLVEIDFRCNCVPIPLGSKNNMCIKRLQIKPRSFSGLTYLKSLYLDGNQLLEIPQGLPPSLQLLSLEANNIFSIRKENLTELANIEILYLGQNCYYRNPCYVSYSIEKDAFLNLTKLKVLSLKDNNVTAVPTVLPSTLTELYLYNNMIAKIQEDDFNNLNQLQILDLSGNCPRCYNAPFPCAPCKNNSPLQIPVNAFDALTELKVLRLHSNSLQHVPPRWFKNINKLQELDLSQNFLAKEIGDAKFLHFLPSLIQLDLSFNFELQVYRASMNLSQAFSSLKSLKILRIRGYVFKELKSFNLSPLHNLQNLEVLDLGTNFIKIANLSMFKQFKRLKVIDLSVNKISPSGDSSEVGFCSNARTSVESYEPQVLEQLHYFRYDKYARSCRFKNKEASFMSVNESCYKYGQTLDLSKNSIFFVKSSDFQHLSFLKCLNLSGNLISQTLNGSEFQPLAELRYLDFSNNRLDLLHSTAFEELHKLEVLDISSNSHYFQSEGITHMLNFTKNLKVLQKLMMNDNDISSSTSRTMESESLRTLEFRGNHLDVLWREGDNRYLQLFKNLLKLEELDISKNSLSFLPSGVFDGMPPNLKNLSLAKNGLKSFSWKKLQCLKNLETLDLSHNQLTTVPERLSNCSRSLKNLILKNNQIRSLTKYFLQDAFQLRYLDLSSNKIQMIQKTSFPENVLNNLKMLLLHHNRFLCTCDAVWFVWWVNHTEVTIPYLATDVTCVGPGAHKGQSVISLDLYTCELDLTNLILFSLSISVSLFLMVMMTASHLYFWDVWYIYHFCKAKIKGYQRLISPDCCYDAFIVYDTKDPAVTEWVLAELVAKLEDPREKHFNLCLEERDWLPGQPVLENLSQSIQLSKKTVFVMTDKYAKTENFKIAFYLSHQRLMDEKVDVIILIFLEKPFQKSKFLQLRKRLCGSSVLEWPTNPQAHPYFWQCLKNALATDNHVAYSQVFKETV
Summary of the method: (§1)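 HEK-Blue cells overexpressing the receptor, with NF-κB/AP-1-driven SEAP, were pre-treated 30 min at room temperature with compound (0.05 nM–50 μM), then stimulated with gardiquimod 7.5 μM (TLR7), R848 15.9 μM (TLR8) or ODN2006 5 nM (TLR9). SEAP was read after 22 h at 37 °C as percent inhibition.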

human TLR8 = molecular target: T2, human TLR8 (Homo sapiens, UniProt Q9NR97); assay: TLR8 inhibition reporter assay (HEK-Blue cells, SEAP reporter, R848 stimulation); conditions: HEK-Blue cells overexpressing human TLR8, SEAP reporter, R848 15.9 μM
T2 construct: host or cells: HEK-Blue cells (HEK293-derived reporter line)
T2 sequence (Q9NR97 27-1041): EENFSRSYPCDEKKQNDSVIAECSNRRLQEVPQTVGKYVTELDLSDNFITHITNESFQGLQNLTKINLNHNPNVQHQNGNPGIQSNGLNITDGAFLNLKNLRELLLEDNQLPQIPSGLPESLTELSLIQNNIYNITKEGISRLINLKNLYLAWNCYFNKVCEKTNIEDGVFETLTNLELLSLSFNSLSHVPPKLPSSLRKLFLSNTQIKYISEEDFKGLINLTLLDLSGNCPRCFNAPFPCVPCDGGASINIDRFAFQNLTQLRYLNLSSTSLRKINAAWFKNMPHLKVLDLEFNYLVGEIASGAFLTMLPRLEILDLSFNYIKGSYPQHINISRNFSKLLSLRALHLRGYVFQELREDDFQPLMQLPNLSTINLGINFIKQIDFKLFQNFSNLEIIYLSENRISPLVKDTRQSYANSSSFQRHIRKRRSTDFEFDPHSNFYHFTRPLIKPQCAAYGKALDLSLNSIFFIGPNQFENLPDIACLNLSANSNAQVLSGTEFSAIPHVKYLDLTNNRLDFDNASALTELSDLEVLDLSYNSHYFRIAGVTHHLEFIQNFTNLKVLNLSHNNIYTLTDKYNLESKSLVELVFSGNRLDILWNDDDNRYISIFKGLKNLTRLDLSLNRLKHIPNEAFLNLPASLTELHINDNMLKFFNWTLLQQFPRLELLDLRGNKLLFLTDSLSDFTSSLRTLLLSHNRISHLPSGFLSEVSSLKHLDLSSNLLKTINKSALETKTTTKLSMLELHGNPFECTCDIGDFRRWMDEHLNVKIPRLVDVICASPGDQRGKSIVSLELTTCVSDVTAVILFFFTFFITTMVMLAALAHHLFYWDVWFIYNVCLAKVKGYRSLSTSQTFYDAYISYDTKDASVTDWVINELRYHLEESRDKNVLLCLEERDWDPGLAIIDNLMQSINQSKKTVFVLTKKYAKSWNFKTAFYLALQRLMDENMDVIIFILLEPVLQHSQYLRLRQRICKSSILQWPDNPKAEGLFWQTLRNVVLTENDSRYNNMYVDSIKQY
Summary of the method: as §1

human TLR9 = molecular target: T3, human TLR9 (Homo sapiens, UniProt Q9NR96); assay: TLR9 inhibition reporter assay (HEK-Blue cells, SEAP reporter, ODN2006 stimulation); conditions: HEK-Blue cells overexpressing human TLR9, SEAP reporter, ODN2006 5 nM
T3 construct: host or cells: HEK-Blue cells (HEK293-derived reporter line)
T3 sequence (Q9NR96 26-1032): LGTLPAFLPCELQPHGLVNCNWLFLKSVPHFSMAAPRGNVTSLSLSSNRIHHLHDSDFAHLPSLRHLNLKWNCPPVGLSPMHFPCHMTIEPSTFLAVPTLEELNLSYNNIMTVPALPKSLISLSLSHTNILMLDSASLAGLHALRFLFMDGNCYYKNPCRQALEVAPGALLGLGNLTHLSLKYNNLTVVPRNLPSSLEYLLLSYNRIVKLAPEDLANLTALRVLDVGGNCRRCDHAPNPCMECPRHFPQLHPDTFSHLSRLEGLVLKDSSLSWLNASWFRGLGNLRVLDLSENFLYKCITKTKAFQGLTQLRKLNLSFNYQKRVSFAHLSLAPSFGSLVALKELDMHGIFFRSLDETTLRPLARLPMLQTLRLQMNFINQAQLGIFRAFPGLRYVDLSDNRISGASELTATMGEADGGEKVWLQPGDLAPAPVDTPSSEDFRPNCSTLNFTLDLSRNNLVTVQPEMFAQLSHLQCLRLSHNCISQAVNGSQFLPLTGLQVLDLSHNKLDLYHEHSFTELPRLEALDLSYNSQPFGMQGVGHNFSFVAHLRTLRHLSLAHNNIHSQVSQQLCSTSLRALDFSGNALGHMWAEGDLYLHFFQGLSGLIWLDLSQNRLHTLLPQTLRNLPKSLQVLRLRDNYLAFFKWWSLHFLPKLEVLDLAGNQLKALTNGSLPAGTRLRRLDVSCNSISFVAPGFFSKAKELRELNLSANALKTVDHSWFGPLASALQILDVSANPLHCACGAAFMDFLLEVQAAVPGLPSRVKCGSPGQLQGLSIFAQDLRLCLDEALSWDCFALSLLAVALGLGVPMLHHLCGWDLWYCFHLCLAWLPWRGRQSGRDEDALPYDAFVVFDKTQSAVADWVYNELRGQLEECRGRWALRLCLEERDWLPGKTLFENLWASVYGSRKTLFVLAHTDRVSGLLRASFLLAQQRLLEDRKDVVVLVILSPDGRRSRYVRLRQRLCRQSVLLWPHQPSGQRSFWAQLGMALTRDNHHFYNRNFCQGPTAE
Summary of the method: as §1

CC(C)c1c(-c2ccnc3[nH]ncc23)[nH]c2ccc(C3CCN(Cc4ccc(N5CCOCC5)cc4)CC3)cc12 [Example 912, 4-(4-((4-(3-isopropyl-2-(1H-pyrazolo[3,4-b]pyridin-4-yl)-1H-indol-5-yl)piperidin-1-yl)methyl)phenyl)morpholine]
IC50 (human TLR7): < 100 nM
IC50 (human TLR8): < 100 nM
IC50 (human TLR9): 100 to 1000 nM

CC(C)c1c(-c2cn(C)c3ncccc23)[nH]c2ccc(C3CCN(CC#N)CC3)cc12 [Example 958, 2-(4-(3-isopropyl-2-(1-methyl-1H-pyrrolo[2,3-b]pyridin-3-yl)-1H-indol-5-yl)piperidin-1-yl)acetonitrile]
IC50 (human TLR7): < 100 nM
IC50 (human TLR8): < 100 nM
IC50 (human TLR9): 1000 to 50000 nM

Cc1cc(-c2[nH]c3ccc(C4CCN(CC(=O)N(C)C)CC4)cc3c2C(C)C)nc2scnc12 [Example 407, 2-(4-(3-isopropyl-2-(7-methylthiazolo[5,4-b]pyridin-5-yl)-1H-indol-5-yl)piperidin-1-yl)-N,N-dimethylacetamide]
IC50 (human TLR7): < 100 nM
IC50 (human TLR8): < 100 nM
IC50 (human TLR9): 1000 to 50000 nM

Cc1cc(-c2[nH]c3ccc(C4CCN(C5CCOCC5)CC4)cc3c2C(C)C)cn2nnnc12 [Example 698, 6-(3-isopropyl-5-(1-(tetrahydro-2H-pyran-4-yl)piperidin-4-yl)-1H-indol-2-yl)-8-methyltetrazolo[1,5-a]pyridine]
IC50 (human TLR7): < 100 nM
IC50 (human TLR8): < 100 nM
IC50 (human TLR9): 1000 to 50000 nM

Cc1nnn2ccc(-c3[nH]c4ccc(C5CCN(CC(=O)N(C)C)CC5)cc4c3C(C)C)cc12 [Example 318, 2-(4-(3-isopropyl-2-(3-methyl-[1,2,3]triazolo[1,5-a]pyridin-5-yl)-1H-indol-5-yl)piperidin-1-yl)-N,N-dimethylacetamide]
IC50 (human TLR7): < 100 nM
IC50 (human TLR8): < 100 nM
IC50 (human TLR9): 1000 to 50000 nM

Cc1nnn2ccc(-c3[nH]c4ccc(C5CCN(C6CCOCC6)CC5)cc4c3C(C)C)cc12 [Example 700, 5-(3-isopropyl-5-(1-(tetrahydro-2H-pyran-4-yl)piperidin-4-yl)-1H-indol-2-yl)-3-methyl-[1,2,3]triazolo[1,5-a]pyridine]
IC50 (human TLR7): < 100 nM
IC50 (human TLR8): < 100 nM
IC50 (human TLR9): 100 to 1000 nM

Cc1nnn2ccc(-c3[nH]c4ccc(C5CCN(C6CCS(=O)(=O)CC6)CC5)cc4c3C(C)C)cc12 [Example 792, 4-(4-(3-isopropyl-2-(3-methyl-[1,2,3]triazolo[1,5-a]pyridin-5-yl)-1H-indol-5-yl)piperidin-1-yl)tetrahydro-2H-thiopyran 1,1-dioxide]
IC50 (human TLR7): < 100 nM
IC50 (human TLR8): < 100 nM
IC50 (human TLR9): 1000 to 50000 nM

Cc1cn2cc(-c3[nH]c4ccc(C5CCN(C(=O)CN(C)C)CC5)cc4c3CC(F)F)ccc2n1 [Example 551, 1-(4-(3-(2,2-difluoroethyl)-2-(2-methylimidazo[1,2-a]pyridin-6-yl)-1H-indol-5-yl)piperidin-1-yl)-2-(dimethylamino)ethan-1-one]
IC50 (human TLR7): < 100 nM
IC50 (human TLR8): > 3130 nM
IC50 (human TLR9): 100 to 1000 nM

CC(C)c1c(-c2ccc(C#N)c3ncccc23)[nH]c2ccc(C3CCN(CCS(C)(=O)=O)CC3)cc12 [Example 796, 5-(3-isopropyl-5-(1-(2-(methylsulfonyl)ethyl)piperidin-4-yl)-1H-indol-2-yl)quinoline-8-carbonitrile]
IC50 (human TLR7): < 100 nM
IC50 (human TLR8): < 100 nM
IC50 (human TLR9): 1000 to 50000 nM

Cc1cnc2[nH]ccc2c1-c1[nH]c2ccc(C3CCNCC3)cc2c1C(C)C [Example 247, 4-(3-isopropyl-5-(piperidin-4-yl)-1H-indol-2-yl)-5-methyl-1H-pyrrolo[2,3-b]pyridine]
IC50 (human TLR7): < 100 nM
IC50 (human TLR8): < 100 nM
IC50 (human TLR9): 1000 to 50000 nM

Cc1cc(-c2[nH]c3ccc(C4CCN(C5COC5)CC4)cc3c2C(C)C)nc2scnc12 [Example 718, 5-(3-isopropyl-5-(1-(oxetan-3-yl)piperidin-4-yl)-1H-indol-2-yl)-7-methylthiazolo[5,4-b]pyridine]
IC50 (human TLR7): < 100 nM
IC50 (human TLR8): < 100 nM
IC50 (human TLR9): 1000 to 50000 nM

CC(C)c1c(-c2cccn3ncnc23)[nH]c2ccc(C3CCN(CC(C)(C)O)CC3)cc12 [Example 760, 1-(4-(2-([1,2,4]triazolo[1,5-a]pyridin-8-yl)-3-isopropyl-1H-indol-5-yl)piperidin-1-yl)-2-methylpropan-2-ol]
IC50 (human TLR7): 100 to 1000 nM
IC50 (human TLR8): < 100 nM
IC50 (human TLR9): 1000 to 50000 nM

Cc1nn2ccc(-c3[nH]c4ccc(C5CCN(CC(=O)N(C)C)CC5)cc4c3C(C)C)cc2c1F [Example 399, 2-(4-(2-(3-fluoro-2-methylpyrazolo[1,5-a]pyridin-5-yl)-3-isopropyl-1H-indol-5-yl)piperidin-1-yl)-N,N-dimethylacetamide]
IC50 (human TLR7): < 100 nM
IC50 (human TLR8): 1000 to 50000 nM
IC50 (human TLR9): 1000 to 50000 nM

Cc1cc2[nH]c(-c3ccnc4[nH]ncc34)c(C(C)C)c2cc1C1CCNCC1 [Example 250, 4-(3-isopropyl-6-methyl-5-(piperidin-4-yl)-1H-indol-2-yl)-1H-pyrazolo[3,4-b]pyridine]
IC50 (human TLR7): < 100 nM
IC50 (human TLR8): < 100 nM
IC50 (human TLR9): 100 to 1000 nM
